Consider 11 compounds from ChEMBL document CHEMBL5214949, “Synthesis and biological evaluation of (4-hydroxy-2-(substitued sulfonamido)pyrimidine-5-carbonyl)glycines as oral erythropoietin secretagogues” (Bioorg Med Chem Lett, 2022).

The structures appear in SMILES notation. pEC50: −log10 of the molar value. Calls of active or inactive are those of the source. The calls are words filed in the database; no cut-off is given here.

The pEC50 is the EC50 on a negative log10 scale, so that one unit is a factor of ten.

A short description of data set [1]: Cytotoxicity against human Hep3B cells assessed as cell viability at 12.5 ug/ml measured by MTT assay. It counts as toxicity, cell-based, Hep 3B2. Particulars: at 12.5 µg/mL, read-out: Activity. (In general: Tetrazolium dyes change colour on reduction, which living cells bring about.)
Data set [2] relates to Mus musculus. The experiment in a line: In vivo inhibition of PHD2 in ICR mouse assessed as increase in serum EPO production at 10 mg/kg, po and measured after 4 hrs by ELISA. It counts as functional, organism-based. Background: In an ELISA, binding on a coated surface is turned into a signal by an enzyme label.
Data set [3] is described as follows: Cytotoxicity against human Hep3B cells assessed as cell viability at 100 ug/ml measured by MTT assay. The data set is classed as toxicity, cell-based, Hep 3B2. To be noted: at 100 µg/mL, read-out: Activity.
The target in data set [4] is Egl nine homolog 1 (Homo sapiens, UniProt Q9GZT9). The experiment in a line: Inhibition of PHD2 in human Hep3B cells assessed as increase in EPO production measured after 24 hrs by ELISA. The data set is classed as cell-based.
Egl nine homolog 1, sequence (Q9GZT9 whole entry): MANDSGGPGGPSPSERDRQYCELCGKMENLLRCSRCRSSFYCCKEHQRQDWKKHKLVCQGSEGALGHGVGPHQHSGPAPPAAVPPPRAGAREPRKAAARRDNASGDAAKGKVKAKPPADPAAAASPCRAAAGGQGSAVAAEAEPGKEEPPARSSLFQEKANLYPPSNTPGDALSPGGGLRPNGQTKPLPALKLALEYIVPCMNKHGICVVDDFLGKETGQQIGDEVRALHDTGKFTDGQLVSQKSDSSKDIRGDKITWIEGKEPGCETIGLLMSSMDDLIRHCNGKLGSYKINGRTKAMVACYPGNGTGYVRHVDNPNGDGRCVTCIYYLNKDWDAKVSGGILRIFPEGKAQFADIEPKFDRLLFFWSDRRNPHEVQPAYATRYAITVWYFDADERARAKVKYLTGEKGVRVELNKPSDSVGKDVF

As for `COc1ccc(S(=O)(=O)Nc2ncc(C(=O)NCC(=O)O)c(O)n2)cc1`, the viability at 12.5 ug/ml in data set [1] was 105%. In data set [2], the inhibition entry is “Active”. Besides, in data set [3], the viability at 100 ug/ml is 110%.

`O=C(O)CNC(=O)c1cnc(NS(=O)(=O)c2ccccc2)nc1O`: the inhibition entry in data set [2] is “Active”.

Regarding `O=C(O)CNC(=O)c1cnc(NS(=O)(=O)c2ccc(Br)cc2)nc1O`, the viability at 12.5 ug/ml in data set [1] worked out at 100%. Besides, the negative-log EC50 (pEC50) in data set [4] was 5.10. Further, the viability at 100 ug/ml in data set [3] came out at 116%.

Take `O=C(O)CNC(=O)c1cnc(NS(=O)(=O)Cc2ccccc2)nc1O`: the viability at 12.5 ug/ml in data set [1] was determined as 90%. In data set [2], the inhibition result is “Active”. Further, the viability at 100 ug/ml in data set [3] is 87.5%.

Take `O=C(O)CNC(=O)c1cnc(NS(=O)(=O)c2ccc(C(F)(F)F)cc2)nc1O`: the viability at 12.5 ug/ml in data set [1] was determined as 97.2%. Moreover, the inhibition entry in data set [2] is “Active”. Besides, the viability at 100 ug/ml in data set [3] is 95.8%.

In the case of `Cc1ccc(S(=O)(=O)Nc2ncc(C(=O)NCC(=O)O)c(O)n2)cc1`, the viability at 12.5 ug/ml in data set [1] was 98.5%. Besides, the pEC50 in data set [4] was 5.03. Moreover, in data set [3], the viability at 100 ug/ml was 102%.

For `O=C(O)CNC(=O)c1cnc(NS(=O)(=O)c2ccc(Cl)cc2)nc1O`, in data set [1], the viability at 12.5 ug/ml is 85.5%. In data set [3], the viability at 100 ug/ml was 93.4%.

In the case of `Cc1nc(C(=O)NCC(=O)O)c(O)c2ccc(Oc3ccccc3)cc12` [ROXADUSTAT], the viability at 12.5 ug/ml in data set [1] is 89.9%. The inhibition entry in data set [2] was “Active”. In data set [3], the viability at 100 ug/ml came out at 58.5%.

Turning to `O=C(O)CNC(=O)c1cnc(NS(=O)(=O)c2ccc(Cl)c(Cl)c2)nc1O`, the viability at 12.5 ug/ml in data set [1] turned out to be 89.5%. The viability at 100 ug/ml in data set [3] was determined as 90.9%.

`O=C(O)CNC(=O)c1cnc(NS(=O)(=O)c2ccc(-c3ccccc3)cc2)nc1O`: the viability at 12.5 ug/ml in data set [1] turned out to be 91.9%. In addition, in data set [2], the inhibition entry is “Active”. Moreover, the viability at 100 ug/ml in data set [3] amounted to 73.4%.

Consider `O=C(O)CNC(=O)c1cnc(NS(=O)(=O)c2cccc(Cl)c2)nc1O`, for which the viability at 12.5 ug/ml in data set [1] was found to be 95.7%. Besides, the pEC50 in data set [4] was 5.90. Moreover, in data set [2], the inhibition result was “Active”. Besides, the viability at 100 ug/ml in data set [3] came to 84.4%.
